# Results reported in patent US9708314B2, “Heterocyclic amide compound” (NISSAN CHEMICAL INDUSTRIES, LTD., priority 2013, dated 2017).
# What was measured:
# Assay type in all cases: in vivo
# [1] = system: directly sowed Oryza sativa; experiment: Test Example 3: effect on crop by application to foliage (Wagner pot, water depth 0.1-0.5 cm); settings: Nineteenth Table; application to foliage; application herbicide amount 320 g/ha
# In short: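 Rice-field weeds and directly sown rice were grown 14 days in flooded alluvial soil (water depth 0.1–0.5 cm) at 25–30 °C in a greenhouse. An emulsion formulation diluted to the stated g/ha rate was sprayed onto stems and leaves. Effects were scored on a 0–5 scale (herbicidal ratio bands) three weeks after treatment.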
# [2] = system: directly sowed Oryza sativa; experiment: Test Example 4: effect on crop by application to foliage (diluvial soil, plastic box); settings: 320 g/ha; for d (directly sowed Oryza sativa) effect on crop grade: foliage application; for effect on crop, d (directly sowed Oryza sativa): application to foliage
# In short: (§1)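 Plants were grown in sterilized diluvial soil in a greenhouse at 25-30° C for 14 days, then sprayed on stems and leaves with water-diluted emulsion formulation at set rates in g/ha. Weed control and crop injury were scored 3 weeks after treatment on a 0-5 herbicidal-ratio scale, from 0 (≤5%) to 5 (≥90%).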
# [3] = system: Zea mays; experiment: as above; settings: 320 g/ha; for b (Zea mays) effect on crop grade: foliage application; for effect on crop, b (Zea mays): application to foliage
# In short: as §1
# [4] = system: Triticum aestivum; experiment: as above; settings: 320 g/ha; for e (Triticum aestivum) effect on crop grade: foliage application; for effect on crop, e (Triticum aestivum): application to foliage
# In short: as §1
# [5] = system: Beta vulgaris ssp. vulgaris; experiment: as above; settings: 320 g/ha; for f (Beta vulgaris ssp. vulgaris) effect on crop grade: foliage application; for effect on crop, f (Beta vulgaris ssp. vulgaris): application to foliage
# In short: as §1
# [6] = system: Brassica campestris L.; experiment: as above; settings: 320 g/ha; for g (Brassica campestris L.) effect on crop grade: foliage application; for effect on crop, g (Brassica campestris L.): application to foliage
# In short: as §1
# [7] = system: Glycine max; experiment: as above; settings: 320 g/ha; for c (Glycine max) effect on crop grade: foliage application; for effect on crop, c (Glycine max): application to foliage
# In short: as §1
# [8] = system: Veronica persica; experiment: Test Example 4: herbicidal effect by application to foliage (diluvial soil, plastic box); settings: 320 g/ha; for R (Veronica persica) herbicidal effect grade: foliage application; for herbicidal effect, R (Veronica persica): application to foliage
# In short: as §1
# [9] = system: Stellaria media; experiment: as above; settings: 320 g/ha; for P (Stellaria media) herbicidal effect grade: foliage application; for herbicidal effect, P (Stellaria media): application to foliage
# In short: as §1
# [10] = system: Chenopodium album; experiment: as above; settings: 320 g/ha; for O (Chenopodium album) herbicidal effect grade: foliage application; for herbicidal effect, O (Chenopodium album): application to foliage
# In short: as §1
# [11] = system: Alopecurus myosuroides; experiment: as above; settings: 320 g/ha; for J (Alopecurus myosuroides) herbicidal effect grade: foliage application; for herbicidal effect, J (Alopecurus myosuroides): application to foliage
# In short: as §1
# [12] = system: Setaria viridis; experiment: as above; settings: 320 g/ha; for G (Setaria viridis) herbicidal effect grade: foliage application; for herbicidal effect, G (Setaria viridis): application to foliage
# In short: as §1
# [13] = system: Apera spica-venti.; experiment: as above; settings: 320 g/ha; for L (Apera spica-venti.) herbicidal effect grade: foliage application; for herbicidal effect, L (Apera spica-venti.): application to foliage
# In short: as §1
# [14] = system: Digitaria ciliaris; experiment: as above; settings: 320 g/ha; for F (Digitaria ciliaris) herbicidal effect grade: foliage application; for herbicidal effect, F (Digitaria ciliaris): application to foliage
# In short: as §1
# [15] = system: Amaranthus retroflexus; experiment: as above; settings: 320 g/ha; for N (Amaranthus retroflexus) herbicidal effect grade: foliage application; for herbicidal effect, N (Amaranthus retroflexus): application to foliage
# In short: as §1
# [16] = system: Echinochloa crus-galli var. crus-galli; experiment: as above; settings: 320 g/ha; for H (Echinochloa crus-galli var. crus-galli) herbicidal effect grade: foliage application; for herbicidal effect, H (Echinochloa crus-galli var. crus-galli): application to foliage
# In short: as §1
# [17] = system: Avena fatua; experiment: as above; settings: 320 g/ha; for I (Avena fatua) herbicidal effect grade: foliage application; for herbicidal effect, I (Avena fatua): application to foliage
# In short: as §1
# [18] = system: Galium spurium; experiment: as above; settings: 320 g/ha; for Q (Galium spurium) herbicidal effect grade: foliage application; for herbicidal effect, Q (Galium spurium): application to foliage
# In short: as §1
# [19] = system: Abutilon theophrasti; experiment: as above; settings: 320 g/ha; for M (Abutilon theophrasti) herbicidal effect grade: foliage application; for herbicidal effect, M (Abutilon theophrasti): application to foliage
# In short: as §1
# [20] = system: Lolium multiflorum Lam.; experiment: as above; settings: 320 g/ha; for K (Lolium multiflorum Lam.) herbicidal effect grade: foliage application; for herbicidal effect, K (Lolium multiflorum Lam.): application to foliage
# In short: as §1
Structure (SMILES),b (effect on crop grade) [1],d (directly sowed Oryza sativa) effect on crop grade [2],b (Zea mays) effect on crop grade [3],e (Triticum aestivum) effect on crop grade [4],f (Beta vulgaris ssp. vulgaris) effect on crop grade [5],g (Brassica campestris L.) effect on crop grade [6],c (Glycine max) effect on crop grade [7],R (Veronica persica) herbicidal effect grade [8],P (Stellaria media) herbicidal effect grade [9],O (Chenopodium album) herbicidal effect grade [10],J (Alopecurus myosuroides) herbicidal effect grade [11],G (Setaria viridis) herbicidal effect grade [12],L (Apera spica-venti.) herbicidal effect grade [13],F (Digitaria ciliaris) herbicidal effect grade [14],N (Amaranthus retroflexus) herbicidal effect grade [15],H (Echinochloa crus-galli var. crus-galli) herbicidal effect grade [16],I (Avena fatua) herbicidal effect grade [17],Q (Galium spurium) herbicidal effect grade [18],M (Abutilon theophrasti) herbicidal effect grade [19],K (Lolium multiflorum Lam.) herbicidal effect grade [20],also measured
COC(=O)Cn1nnnc1NC(=O)c1ccc(C(F)(F)F)n2c(C(C)C)nnc12 [2-046],0 (Herbicidal ratio of 5% or less (almost no effect)),0 (Herbicidal ratio of 5% or less (almost no effect)),0 (Herbicidal ratio of 5% or less (almost no effect)),0 (Herbicidal ratio of 5% or less (almost no effect)),2 (Herbicidal ratio of 20% or more and less than 40%),0 (Herbicidal ratio of 5% or less (almost no effect)),0 (Herbicidal ratio of 5% or less (almost no effect)),1 (Herbicidal ratio of 5% or more and less than 20%),2 (Herbicidal ratio of 20% or more and less than 40%),4 (Herbicidal ratio of 70% or more and less than 90%),0 (Herbicidal ratio of 5% or less (almost no effect)),1 (Herbicidal ratio of 5% or more and less than 20%),0 (Herbicidal ratio of 5% or less (almost no effect)),0 (Herbicidal ratio of 5% or less (almost no effect)),4 (Herbicidal ratio of 70% or more and less than 90%),3 (Herbicidal ratio of 40% or more and less than 70%),0 (Herbicidal ratio of 5% or less (almost no effect)),1 (Herbicidal ratio of 5% or more and less than 20%),4 (Herbicidal ratio of 70% or more and less than 90%),0 (Herbicidal ratio of 5% or less (almost no effect)),–
COCCN(C)c1nnc2c(C(=O)Nc3nnnn3C)ccc(C(F)(F)F)n12 [2-079],5 (Herbicidal ratio of 90% or more (almost completely withered)),–,–,–,–,–,–,–,–,–,–,–,–,–,–,–,–,–,–,–,"effect on crop, d (directly sowed Oryza sativa) [2]: 4 (Herbicidal ratio of 70% or more and less than 90%); effect on crop, b (Zea mays) [3]: 5 (Herbicidal ratio of 90% or more (almost completely withered)); effect on crop, e (Triticum aestivum) [4]: 2 (Herbicidal ratio of 20% or more and less than 40%); effect on crop, f (Beta vulgaris ssp. vulgaris) [5]: 5 (Herbicidal ratio of 90% or more (almost completely withered)); effect on crop, g (Brassica campestris L.) [6]: 5 (Herbicidal ratio of 90% or more (almost completely withered)); effect on crop, c (Glycine max) [7]: 2 (Herbicidal ratio of 20% or more and less than 40%); herbicidal effect, R (Veronica persica) [8]: 5 (Herbicidal ratio of 90% or more (almost completely withered)); herbicidal effect, P (Stellaria media) [9]: 5 (Herbicidal ratio of 90% or more (almost completely withered)); herbicidal effect, O (Chenopodium album) [10]: 5 (Herbicidal ratio of 90% or more (almost completely withered)); herbicidal effect, J (Alopecurus myosuroides) [11]: 4 (Herbicidal ratio of 70% or more and less than 90%); herbicidal effect, G (Setaria viridis) [12]: 5 (Herbicidal ratio of 90% or more (almost completely withered)); herbicidal effect, L (Apera spica-venti.) [13]: 5 (Herbicidal ratio of 90% or more (almost completely withered)); herbicidal effect, F (Digitaria ciliaris) [14]: 5 (Herbicidal ratio of 90% or more (almost completely withered)); herbicidal effect, N (Amaranthus retroflexus) [15]: 5 (Herbicidal ratio of 90% or more (almost completely withered)); herbicidal effect, H (Echinochloa crus-galli var. crus-galli) [16]: 5 (Herbicidal ratio of 90% or more (almost completely withered)); herbicidal effect, I (Avena fatua) [17]: 3 (Herbicidal ratio of 40% or more and less than 70%); herbicidal effect, Q (Galium spurium) [18]: 4 (Herbicidal ratio of 70% or more and less than 90%); herbicidal effect, M (Abutilon theophrasti) [19]: 5 (Herbicidal ratio of 90% or more (almost completely withered)); herbicidal effect, K (Lolium multiflorum Lam.) [20]: 2 (Herbicidal ratio of 20% or more and less than 40%)"
CC#Cc1nnc2c(C(=O)Nc3nnnn3C)ccc(C(F)(F)F)n12 [2-106],0 (Herbicidal ratio of 5% or less (almost no effect)),–,–,–,–,–,–,–,–,–,–,–,–,–,–,–,–,–,–,–,"effect on crop, d (directly sowed Oryza sativa) [2]: 4 (Herbicidal ratio of 70% or more and less than 90%); effect on crop, b (Zea mays) [3]: 0 (Herbicidal ratio of 5% or less (almost no effect)); effect on crop, e (Triticum aestivum) [4]: 0 (Herbicidal ratio of 5% or less (almost no effect)); effect on crop, f (Beta vulgaris ssp. vulgaris) [5]: 5 (Herbicidal ratio of 90% or more (almost completely withered)); effect on crop, g (Brassica campestris L.) [6]: 3 (Herbicidal ratio of 40% or more and less than 70%); effect on crop, c (Glycine max) [7]: 0 (Herbicidal ratio of 5% or less (almost no effect)); herbicidal effect, R (Veronica persica) [8]: 3 (Herbicidal ratio of 40% or more and less than 70%); herbicidal effect, P (Stellaria media) [9]: 4 (Herbicidal ratio of 70% or more and less than 90%); herbicidal effect, O (Chenopodium album) [10]: 5 (Herbicidal ratio of 90% or more (almost completely withered)); herbicidal effect, J (Alopecurus myosuroides) [11]: 0 (Herbicidal ratio of 5% or less (almost no effect)); herbicidal effect, G (Setaria viridis) [12]: 1 (Herbicidal ratio of 5% or more and less than 20%); herbicidal effect, L (Apera spica-venti.) [13]: 0 (Herbicidal ratio of 5% or less (almost no effect)); herbicidal effect, F (Digitaria ciliaris) [14]: 3 (Herbicidal ratio of 40% or more and less than 70%); herbicidal effect, N (Amaranthus retroflexus) [15]: 4 (Herbicidal ratio of 70% or more and less than 90%); herbicidal effect, H (Echinochloa crus-galli var. crus-galli) [16]: 3 (Herbicidal ratio of 40% or more and less than 70%); herbicidal effect, I (Avena fatua) [17]: 1 (Herbicidal ratio of 5% or more and less than 20%); herbicidal effect, Q (Galium spurium) [18]: 3 (Herbicidal ratio of 40% or more and less than 70%); herbicidal effect, M (Abutilon theophrasti) [19]: 5 (Herbicidal ratio of 90% or more (almost completely withered)); herbicidal effect, K (Lolium multiflorum Lam.) [20]: 0 (Herbicidal ratio of 5% or less (almost no effect))"
Cn1nnnc1NC(=O)c1ccc(C(F)(F)F)n2c(CCS(C)(=O)=O)nnc12 [2-059],5 (Herbicidal ratio of 90% or more (almost completely withered)),5 (Herbicidal ratio of 90% or more (almost completely withered)),5 (Herbicidal ratio of 90% or more (almost completely withered)),4 (Herbicidal ratio of 70% or more and less than 90%),5 (Herbicidal ratio of 90% or more (almost completely withered)),5 (Herbicidal ratio of 90% or more (almost completely withered)),3 (Herbicidal ratio of 40% or more and less than 70%),5 (Herbicidal ratio of 90% or more (almost completely withered)),5 (Herbicidal ratio of 90% or more (almost completely withered)),5 (Herbicidal ratio of 90% or more (almost completely withered)),4 (Herbicidal ratio of 70% or more and less than 90%),5 (Herbicidal ratio of 90% or more (almost completely withered)),4 (Herbicidal ratio of 70% or more and less than 90%),5 (Herbicidal ratio of 90% or more (almost completely withered)),5 (Herbicidal ratio of 90% or more (almost completely withered)),5 (Herbicidal ratio of 90% or more (almost completely withered)),4 (Herbicidal ratio of 70% or more and less than 90%),5 (Herbicidal ratio of 90% or more (almost completely withered)),5 (Herbicidal ratio of 90% or more (almost completely withered)),4 (Herbicidal ratio of 70% or more and less than 90%),–
